In brackets after ≈: the same amount, converted by molar mass.

Experimental findings from ChEMBL document CHEMBL1857833, “Screening and optimization of specific chemical series against human African Trypanosomiasis (HAT)” are described below.

A short description of series [1]: DNDI: Cytotoxicity against L929 mouse fibroblasts, CYTO-SP, 24 hour. Format: toxicity, cell-based. The following applies: mouse, L929 mouse fibroblasts.
The nature of series [2]: DNDI: Cytotoxicity against L929 mouse fibroblasts, 72 hour. It counts as toxicity, cell-based. The following applies: mouse, L929 mouse fibroblasts.
For a further series, the system named is Trypanosoma brucei. The series can be described thus: DNDI: Inhibition of Human African Trypanosomiasis, SBRI 427, in vitro. Format: functional, organism-based. The following applies: Trypanosoma brucei, SBRI 427; read-out: IC50.

As to `CCCC(CCC)NCc1coc(-c2ccc(Cl)cc2)n1`, in series [1], the IC50 at 24 h came to 38.4 µg/mL (≈ 125 µM). The compound also yielded an IC50 at 72 h in series [2] of 5.72 µg/mL (≈ 18.6 µM). The IC50 with Trypanosoma brucei was 2.08 µg/mL (≈ 6.78 µM).

Turning to `C[C@H](NCc1coc(-c2ccc(Cl)cc2)n1)C1CCCCC1`, the IC50 at 24 h in series [1] is > 50 µg/mL. Besides, the half-inhibitory concentration (IC50) at 72 h in series [2] was < 3.13 µg/mL. Moreover, in the series on Trypanosoma brucei, the IC50 amounted to 2.29 µg/mL (≈ 7.18 µM).

`CCCCCC(C)NCc1coc(-c2ccccc2O)n1` (centres undefined) showed a half-inhibitory concentration (IC50) at 24 h in series [1] of 24 µg/mL (≈ 83.2 µM). This compound also registered an IC50 at 72 h in series [2] of 7.32 µg/mL (≈ 25.4 µM). The IC50 in the series with Trypanosoma brucei came to 3.56 µg/mL (≈ 12.3 µM).

For the compound `CCCCCC(C)NCc1coc(-c2cccc(F)c2)n1` (centres undefined), in series [1], it took 19 µg/mL (≈ 65.4 µM) to reach half-maximal inhibition (IC50 at 24 h). The compound also returned a 50% inhibitory concentration (IC50) at 72 h in series [2] of 7.19 µg/mL (≈ 24.8 µM). The IC50 in the series on Trypanosoma brucei worked out at 2.14 µg/mL (≈ 7.37 µM).

For `Clc1ccc(-c2nc(CNc3ccccc3)co2)cc1`, the half-maximal inhibitory concentration (IC50) at 24 h in series [1] is > 50 µg/mL. This compound also came in with an IC50 at 72 h in series [2] of 10.5 µg/mL (≈ 36.9 µM). The IC50 in the series with Trypanosoma brucei is > 5 µg/mL.

`CCCCCC(C)NCc1coc(-c2cc(F)ccc2F)n1` (centres undefined) came in with an IC50 at 24 h in series [1] of 36 µg/mL (≈ 117 µM). In series [2], this compound came in with an IC50 at 72 h of 13.2 µg/mL (≈ 42.7 µM). Moreover, the IC50 with Trypanosoma brucei stood at 2.69 µg/mL (≈ 8.72 µM).

On to `CCCCCC(C)NCc1ccccc1-c1ccccc1` (centres undefined), for which the IC50 at 24 h in series [1] was > 50 µg/mL. The 50% inhibitory concentration (IC50) at 72 h in series [2] was 4.68 µg/mL (≈ 16.6 µM). Further, the IC50 in the series on Trypanosoma brucei was found to be 1.35 µg/mL (≈ 4.8 µM).

For the compound `CCOc1ccc(-c2nc(CNC3C[C@@H]4C[C@H]([C@@H]3C)C4(C)C)co2)cc1` (some centres undefined), the IC50 at 24 h in series [1] is > 50 µg/mL. In addition, the half-inhibitory concentration (IC50) at 72 h in series [2] is 3.64 µg/mL (≈ 10.3 µM). The IC50 with Trypanosoma brucei is > 5 µg/mL.

Regarding `CCOc1ccc(-c2nc(CCl)co2)cc1`, in series [1], the IC50 at 24 h is > 5 µg/mL. In series [2], it took 25.9 µg/mL (≈ 109 µM) to reach half-maximal inhibition (IC50 at 72 h). The IC50 in the series with Trypanosoma brucei amounted to 2.19 µg/mL (≈ 9.21 µM).

Regarding `CCCCCC(C)NCc1coc(-c2cccc(OC(F)(F)F)c2)n1` (centres undefined), the IC50 at 24 h in series [1] is > 50 µg/mL. This compound also had an IC50 at 72 h in series [2] of 6.48 µg/mL (≈ 18.2 µM). The IC50 with Trypanosoma brucei came to 1.45 µg/mL (≈ 4.07 µM).

`CCCCCC(C)NCc1coc(-c2ccc(F)c(F)c2)n1` (centres undefined) had an IC50 at 24 h in series [1] of 37 µg/mL (≈ 120 µM). This compound yielded an IC50 at 72 h in series [2] of 6.34 µg/mL (≈ 20.6 µM). Besides, the half-inhibitory concentration (IC50) with Trypanosoma brucei came out at 1.74 µg/mL (≈ 5.64 µM).

With `Clc1ccsc1-c1nc(CNC2[C@H]3C[C@@H]4C[C@@H](C[C@H]2C4)C3)co1` (some centres undefined), the IC50 at 24 h in series [1] is > 50 µg/mL. The IC50 at 72 h in series [2] was 10.6 µg/mL (≈ 30.3 µM). Moreover, the IC50 in the series on Trypanosoma brucei is > 5 µg/mL.

Take `CCCCCC(C)NCc1coc(-c2ccc(F)cc2F)n1` (centres undefined): the IC50 at 24 h in series [1] is > 50 µg/mL. The compound also returned an IC50 at 72 h in series [2] of 12.4 µg/mL (≈ 40.3 µM). Also, in the series on Trypanosoma brucei, the IC50 stood at 2.97 µg/mL (≈ 9.63 µM).

Consider `CCCCCC(C)NCc1coc(-c2ccc3ccccc3c2)n1` (centres undefined), for which, in series [1], inhibition was half-maximal at 17 µg/mL (≈ 52.7 µM) (IC50 at 24 h). The compound also gave a half-maximal inhibitory concentration (IC50) at 72 h in series [2] of 5.65 µg/mL (≈ 17.5 µM). Also, in the series with Trypanosoma brucei, the IC50 was determined as 1.09 µg/mL (≈ 3.38 µM).

For `Clc1ccc(-c2nc(CN[C@]34C[C@H]5C[C@H](C[C@H](C5)C3)C4)co2)cc1`, the half-inhibitory concentration (IC50) at 24 h in series [1] was > 50 µg/mL. Moreover, in series [2], the IC50 at 72 h stood at 37.6 µg/mL (≈ 110 µM). In addition, in the series with Trypanosoma brucei, the IC50 was > 5 µg/mL.

In the case of `CCCCCC(C)NC(=O)c1coc(-c2ccccc2)n1` (centres undefined), the IC50 at 24 h in series [1] was > 50 µg/mL. Further, the IC50 at 72 h in series [2] was determined as 27.2 µg/mL (≈ 95 µM). Further, the IC50 with Trypanosoma brucei was > 5 µg/mL.

For the compound `CCCCCC(C)NCc1nc(-c2ccccc2)no1` (centres undefined), the IC50 at 24 h in series [1] was 50 µg/mL (≈ 183 µM). The compound also returned an IC50 at 72 h in series [2] of 30.8 µg/mL (≈ 113 µM). Also, the IC50 in the series on Trypanosoma brucei is > 5 µg/mL.

For the compound `CCOc1ccc(-c2nc(CN(C)Cc3coc(-c4ccc(OCC)cc4)n3)co2)cc1`, the IC50 at 24 h in series [1] is > 50 µg/mL. In series [2], the half-inhibitory concentration (IC50) at 72 h was > 50 µg/mL. For the same compound, the IC50 in the series with Trypanosoma brucei is > 5 µg/mL.

Turning to `CN(Cc1coc(-c2ccc(Cl)cc2)n1)C1CCCCC1`, in series [1], the IC50 at 24 h was > 50 µg/mL. The compound further yielded a half-inhibitory concentration (IC50) at 72 h in series [2] of 11.4 µg/mL (≈ 37.4 µM). Also, the IC50 in the series with Trypanosoma brucei is 2.7 µg/mL (≈ 8.86 µM).

For the compound `CCCCCC(C)NCc1noc(-c2ccccc2)n1` (centres undefined), in series [1], the IC50 at 24 h came to 50 µg/mL (≈ 183 µM). The compound further gave an IC50 at 72 h in series [2] of 30.7 µg/mL (≈ 112 µM). Moreover, the IC50 with Trypanosoma brucei is > 5 µg/mL.

Take `CCCCCC(C)NCc1csc(-c2ccccc2)n1` (centres undefined): the IC50 at 24 h in series [1] worked out at 18 µg/mL (≈ 62.4 µM). In addition, the IC50 at 72 h in series [2] came to 4.45 µg/mL (≈ 15.4 µM). Moreover, the IC50 with Trypanosoma brucei worked out at 2.64 µg/mL (≈ 9.15 µM).

Regarding `CC1(C)[C@H]2CC[C@@H](CNCc3ccc(-c4ccccc4)s3)[C@@H]1C2`, in series [1], the IC50 at 24 h is > 50 µg/mL. Further, the IC50 at 72 h in series [2] was found to be 6.63 µg/mL (≈ 20.4 µM). Further, in the series on Trypanosoma brucei, the IC50 was determined as 1.02 µg/mL (≈ 3.13 µM).

As to `Clc1ccc(-c2nc(CNC3CCCC3)co2)cc1`, the IC50 at 24 h in series [1] was > 50 µg/mL. In addition, the IC50 at 72 h in series [2] is 12.9 µg/mL (≈ 46.8 µM). In addition, the IC50 in the series with Trypanosoma brucei worked out at 4.78 µg/mL (≈ 17.3 µM).

Regarding `CCOc1ccc(-c2nc(CNCc3ccccc3)co2)cc1`, the IC50 at 24 h in series [1] was > 50 µg/mL. This compound also gave an IC50 at 72 h in series [2] of 18.1 µg/mL (≈ 58.6 µM). In addition, in the series on Trypanosoma brucei, the IC50 was > 5 µg/mL.

For the compound `Clc1ccc(-c2nc(CN3CCCCC3)co2)cc1`, the IC50 at 24 h in series [1] is > 50 µg/mL. Further, half-maximal inhibition in series [2] (IC50 at 72 h) required 34.4 µg/mL (≈ 124 µM). In addition, the IC50 in the series on Trypanosoma brucei is > 5 µg/mL.

Consider `CCCCCC(C)NCc1coc(-c2ccccc2Cl)n1` (centres undefined), for which 17 µg/mL (≈ 55.4 µM) corresponded to half-maximal inhibition in series [1] (IC50 at 24 h). The midpoint of inhibition in series [2], the IC50 at 72 h, lay at 7.17 µg/mL (≈ 23.4 µM). Besides, the IC50 with Trypanosoma brucei worked out at 2.42 µg/mL (≈ 7.89 µM).

`CCCCCC(C)NCc1cc(-c2ccccc2)on1` (centres undefined): in series [1], the IC50 at 24 h was 32 µg/mL (≈ 117 µM). The same compound showed an IC50 at 72 h in series [2] of 12.9 µg/mL (≈ 47.3 µM). For the same compound, the IC50 in the series with Trypanosoma brucei is 5 µg/mL (≈ 18.4 µM).

For the compound `CCCCc1ccc(-c2nc(-c3ccccc3)co2)cc1`, the IC50 at 24 h in series [1] is > 50 µg/mL. It took 26.6 µg/mL (≈ 96 µM) to reach half-maximal inhibition in series [2] (IC50 at 72 h). For the same compound, the IC50 with Trypanosoma brucei is > 5 µg/mL.

Usually IC50 stands for the concentration at which inhibition is half-maximal.
